# Data reported in article PMC9649653, “Biochemical and structural basis for differential inhibitor sensitivity of EGFR with distinct exon 19 mutations” (Nature Communications, 2022).
# Values joined by “and” are separate entries in the source; they are usually repeats but may differ in a detail not shown here. Equal entries are not always repeated. Where two headings read alike, the source gives them in different places.
# Tests used:
# [1] = target: EGFR TKD ΔL747-E749 (Homo sapiens, UniProt P00533, DEL747-749); assay: Michaelis-Menten kinetics (KM,ATP)
# Experimental: (§1) Reactions were carried out in a 384-well assay plate format at 30 °C and initiated with the addition of AQpeptide after 5 min incubation of EGFR with ATP. Progress curves of phosphorylated peptide accumulation were monitored using a BioTek Synergy microplate reader with a fluorescence intensity module excitation and emission wavelength at 360 nm and 480 nm, respectively.
# (§2) Initial velocities (νo) at different ATP concentrations were determined by inspecting progress curves during the steady state phase. The νo values were plotted against ATP concentration, and the curves fit to the Michaelis-Menten equation to estimate KM, ATP as well as Vmax using GraphPad Prism.
# [2] = target: T1, EGFR TKD ΔE746-A750 (Homo sapiens, UniProt P00533, DEL746-750); assay: Michaelis-Menten kinetics (KM,ATP, KM,pept); format: biochemical; settings: read-out: Best fit KM,ATP; individual experiments (Fig. 3b data)
# T1 construct: 6x His (N); made in house; host or cells: Spodoptera frugiperda Sf9 (baculovirus)
# Experimental: as §1, §2
# [3] = target: T2, EGFR TKD L858R/T790M (Homo sapiens, UniProt P00533, L858R/T790M); assay: Michaelis-Menten kinetics (KM,ATP, KM,pept); format: biochemical; settings: read-out: Best fit KM,ATP; individual experiments (Fig. 3b data)
# T2 construct: 6x His (N); made in house; host or cells: Spodoptera frugiperda Sf9 (baculovirus)
# Experimental: as §1, §2
# [4] = target: T3, wild type EGFR TKD (Homo sapiens, UniProt P00533); assay: Michaelis-Menten kinetics (KM,ATP, KM,pept); format: biochemical
# T3 construct: hexa-histidine (6x His) (N); made in house; host or cells: Spodoptera frugiperda Sf9 (baculovirus, pFastBac1)
# [5] = target: T4, EGFR TKD ΔE746-T751InsA (Homo sapiens, UniProt P00533, DEL746-750/T751A); assay: Michaelis-Menten kinetics (KM,ATP, KM,pept); format: biochemical
# T4 construct: 6x His (N); made in house; host or cells: Spodoptera frugiperda Sf9 (baculovirus)
# Experimental: as §1, §2
# [6] = target: T5, EGFR TKD ΔS752-I759 (Homo sapiens, UniProt P00533, DEL752-759); assay: Michaelis-Menten kinetics (KM,ATP, KM,pept); format: biochemical
# T5 construct: 6x His (N); made in house; host or cells: Spodoptera frugiperda Sf9 (baculovirus)
# [7] = target: T6, EGFR TKD ΔL747-T751InsP (Homo sapiens, UniProt P00533, DEL747-750/T751P); assay: Michaelis-Menten kinetics (KM,ATP, KM,pept); format: biochemical; settings: read-out: Best fit KM,ATP; individual experiments (Fig. 3b data)
# T6 construct: 6x His (N); made in house; host or cells: Spodoptera frugiperda Sf9 (baculovirus)
# Experimental: as §1, §2
# [8] = target: T7, EGFR TKD ΔL747-P753InsS (Homo sapiens, UniProt P00533, DEL747-752/P753S); assay: Michaelis-Menten kinetics (KM,ATP, KM,pept); format: biochemical
# T7 construct: 6x His (N); made in house; host or cells: Spodoptera frugiperda Sf9 (baculovirus)
# [9] = target: T8, EGFR TKD ΔL747-A750InsP (Homo sapiens, UniProt P00533, A750P/DEL747-749); assay: Michaelis-Menten kinetics (KM,ATP, KM,pept); format: biochemical
# T8 construct: 6x His (N); made in house; host or cells: Spodoptera frugiperda Sf9 (baculovirus)
# [10] = target: T9, EGFR TKD L747P (Homo sapiens, UniProt P00533, L747P); assay: Michaelis-Menten kinetics (KM,ATP, KM,pept); format: biochemical
# T9 construct: 6x His (N); made in house; host or cells: Spodoptera frugiperda Sf9 (baculovirus)
# [11] = target: T10, EGFR TKD L858R (Homo sapiens, UniProt P00533, L858R); assay: Michaelis-Menten kinetics (KM,ATP, KM,pept); format: biochemical
# T10 construct: 6x His (N); made in house; host or cells: Spodoptera frugiperda Sf9 (baculovirus)
# [12] = read-out: Best fit KM,ATP, individual experiments (Fig. 3b data)
# [13] = read-out: KM, ATP, 20 μM peptide, mean ± SD
smiles,measurement,setting,value
Nc1ncnc2c1ncn2[C@@H]1O[C@H](COP(=O)(O)OP(=O)(O)OP(=O)(O)O)[C@@H](O)[C@H]1O [ATP],Km,[1]; [12],10.3 µM and 8.84 µM and 8.25 µM and 18.4 µM and 22.3 µM and 26.3 µM and 7.28 µM and 5.87 µM and 5.78 µM
same,Km,[1]; [13],13 ± 8 µM
same,Km,[2],194 µM and 149 µM and 116 µM and 126 µM
same,Km,[3],48 µM and 47.5 µM and 38.9 µM and 35.3 µM and 47.4 µM and 56.3 µM and 50.7 µM
same,Km,[4]; [12],9.32 µM and 7.22 µM and 7.98 µM and 15.8 µM and 15.6 µM and 15 µM and 12.6 µM and 10.1 µM
same,Km,[4]; [13],12 ± 3 µM
same,Km,[5]; [12],216 µM and 285 µM and 228 µM and 263 µM and 287 µM and 318 µM
same,Km,[5]; [13],240 ± 59 µM
same,Km,[6]; [12],124 µM (2×) and 122 µM and 82.8 µM (2×) and 79.2 µM and 65.9 µM and 75.6 µM and 64.3 µM
same,Km,[6]; [13],91 ± 25 µM
same,Km,[7],93.5 µM and 183 µM and 100 µM and 217 µM and 135 µM and 204 µM and 224 µM
same,Km,[8]; [12],115 µM and 93.7 µM and 90.2 µM and 86 µM and 70.3 µM and 87.6 µM and 138 µM and 132 µM and 99.9 µM
same,Km,[8]; [13],101 ± 22 µM
same,Km,[9]; [12],23.6 µM and 15.4 µM and 18.7 µM and 31.1 µM and 32.5 µM and 29.2 µM and 22.7 µM and 20.1 µM and 16.8 µM
same,Km,[9]; [13],23 ± 6 µM
same,"KM, ATP for L747P smaller than for ΔE746-A750",[10],7.5 fold
same,Km,[10]; [12],16.8 µM and 14.6 µM and 12.5 µM and 19.3 µM and 21.2 µM and 21.7 µM and 28.8 µM and 29.4 µM and 26 µM
same,Km,[10]; [13],21 ± 6 µM
same,Km,[11]; [12],89.3 µM and 87.4 µM and 87.6 µM and 63.1 µM and 77.3 µM and 74.5 µM and 60.1 µM and 51.1 µM
same,Km,[11]; [13],74 ± 14 µM
